# Experimental data: the supplement of paper PMC10627819
# System: S. aureus DSM 20231
# Assay: Bliss interaction score (quartile over a dose matrix) (fitness difference); higher = more antagonism (negative = synergy)
# Procedure, shortened: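 Fitness was OD595 at entry into stationary phase divided by the plate's robust no-drug mean and capped at 1; single-drug fitness was inferred from combination data. The Bliss score is observed minus expected (product) fitness, summarised by quartiles over technical, biological and donor/recipient replicates.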
# 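Further: first quartile when negative (synergy) and third quartile when positive (antagonism).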
smiles,measurement,value
O=C1CN(/N=C/c2ccc([N+](=O)[O-])o2)C(=O)N1 [Nitrofurantoin] + CCCSc1nc(N[C@@H]2C[C@H]2c2ccc(F)c(F)c2)c2nnn([C@@H]3C[C@H](OCCO)[C@@H](O)[C@H]3O)c2n1 [Ticagrelor],Bliss interaction score,-0.277
CC[C@H]1OC(=O)[C@H](C)[C@@H](O[C@H]2C[C@@](C)(OC)[C@@H](O)[C@H](C)O2)[C@H](C)[C@@H](O[C@@H]2O[C@H](C)C[C@H](N(C)C)[C@H]2O)[C@](C)(OC)C[C@@H](C)C(=O)[C@H](C)[C@@H](O)[C@]1(C)O [Clarithromycin] + Cc1c(Cl)cccc1Nc1ccccc1C(=O)O [Tolfenamic],Bliss interaction score,-0.245
O=C(N[C@H](CO)[C@H](O)c1ccc([N+](=O)[O-])cc1)C(Cl)Cl [Chloramphenicol] + CCCSc1nc(N[C@@H]2C[C@H]2c2ccc(F)c(F)c2)c2nnn([C@@H]3C[C@H](OCCO)[C@@H](O)[C@H]3O)c2n1 [Ticagrelor],Bliss interaction score,-0.239
CCc1oc2ccccc2c1C(=O)c1cc(Br)c(O)c(Br)c1 [Benzbromarone] + C1=CC(=CC(=C1)Cl)NN=C(C#N)C#N [CCCP],Bliss interaction score,-0.103
CCC[C@@H]1C[C@@H](C(=O)N[C@@H]([C@H]2O[C@H](SC)[C@H](O)[C@@H](O)[C@H]2O)[C@@H](C)O)N(C)C1 [Lincomycin] + O=C(O)Cc1cc(I)c(Oc2ccc(O)c(I)c2)c(I)c1 [Tiratricol],Bliss interaction score,0.233
CCC[C@@H]1C[C@@H](C(=O)N[C@@H]([C@H]2O[C@H](SC)[C@H](O)[C@@H](O)[C@H]2O)[C@H](C)Cl)N(C)C1 [Clindamycin] + CC(C)Cc1ccc(C(C)C(=O)O)cc1 [Ibuprofen],Bliss interaction score,-0.231
CCC[C@@H]1C[C@@H](C(=O)N[C@@H]([C@H]2O[C@H](SC)[C@H](O)[C@@H](O)[C@H]2O)[C@@H](C)O)N(C)C1 [Lincomycin] + Cc1c(C)c2c(c(C)c1O)CCC(C)(COc1ccc(CC3SC(=O)NC3=O)cc1)O2 [Troglitazone],Bliss interaction score,0.222
CCC[C@@H]1C[C@@H](C(=O)N[C@@H]([C@H]2O[C@H](SC)[C@H](O)[C@@H](O)[C@H]2O)[C@@H](C)O)N(C)C1 [Lincomycin] + CCCSc1nc(N[C@@H]2C[C@H]2c2ccc(F)c(F)c2)c2nnn([C@@H]3C[C@H](OCCO)[C@@H](O)[C@H]3O)c2n1 [Ticagrelor],Bliss interaction score,-0.385
CC[C@H]1OC(=O)[C@H](C)[C@@H](O[C@H]2C[C@@](C)(OC)[C@@H](O)[C@H](C)O2)[C@H](C)[C@@H](O[C@@H]2O[C@H](C)C[C@H](N(C)C)[C@H]2O)[C@](C)(OC)C[C@@H](C)C(=O)[C@H](C)[C@@H](O)[C@]1(C)O [Clarithromycin] + CN1CCC[C@H]1c1cccnc1 [Nicotine],Bliss interaction score,-0.223
O=C1CN(/N=C/c2ccc([N+](=O)[O-])o2)C(=O)N1 [Nitrofurantoin] + CCCc1nc2c(C)cc(-c3nc4ccccc4n3C)cc2n1Cc1ccc(-c2ccccc2C(=O)O)cc1 [Telmisartan],Bliss interaction score,-0.216
CCN(CC)CCOc1ccc(C(=C(Cl)c2ccccc2)c2ccccc2)cc1 [Clomiphene] + N[C@@H]1CONC1=O [CycloserineD],Bliss interaction score,-0.175
CCC[C@@H]1C[C@@H](C(=O)N[C@@H]([C@H]2O[C@H](SC)[C@H](O)[C@@H](O)[C@H]2O)[C@H](C)Cl)N(C)C1 [Clindamycin] + O=C(O)Cc1cc(I)c(Oc2ccc(O)c(I)c2)c(I)c1 [Tiratricol],Bliss interaction score,0.278
CC[C@H]1OC(=O)[C@H](C)[C@@H](O[C@H]2C[C@@](C)(OC)[C@@H](O)[C@H](C)O2)[C@H](C)[C@@H](O[C@@H]2O[C@H](C)C[C@H](N(C)C)[C@H]2O)[C@](C)(OC)C[C@@H](C)C(=O)[C@H](C)[C@@H](O)[C@]1(C)O [Clarithromycin] + O=C(O)Cc1cc(I)c(Oc2ccc(O)c(I)c2)c(I)c1 [Tiratricol],Bliss interaction score,0.192
CCN(CC)CCOc1ccc(C(=C(Cl)c2ccccc2)c2ccccc2)cc1 [Clomiphene] + O=C(O[C@@H]1Cc2c(O)cc(O)cc2O[C@@H]1c1cc(O)c(O)c(O)c1)c1cc(O)c(O)c(O)c1 [EGCG],Bliss interaction score,0.241
CC(=O)O[C@H]1C[C@@]2(C)[C@@H](C[C@@H](O)[C@H]3[C@@]4(C)CC[C@@H](O)[C@@H](C)[C@@H]4CC[C@@]32C)/C1=C(\CCC=C(C)C)C(=O)O [Fusidic acid] + CC(C)(O)c1ccccc1CC[C@@H](SCC1(CC(=O)O)CC1)c1cccc(/C=C/c2ccc3ccc(Cl)cc3n2)c1 [Montelukast],Bliss interaction score,-0.241
CCN(CC)CCOc1ccc(C(=C(Cl)c2ccccc2)c2ccccc2)cc1 [Clomiphene] + Cn1nnc(-c2ccc(-c3ccc(N4C[C@H](CO)OC4=O)cc3F)cn2)n1 [Tedizolid],Bliss interaction score,0.263
CCC[C@@H]1C[C@@H](C(=O)N[C@@H]([C@H]2O[C@H](SC)[C@H](O)[C@@H](O)[C@H]2O)[C@H](C)Cl)N(C)C1 [Clindamycin] + Nc1ccc(O)c(C(=O)O)c1 [Mesalamine],Bliss interaction score,-0.165
N[C@@H]1CONC1=O [CycloserineD] + Cc1c(Cl)cccc1Nc1ccccc1C(=O)O [Tolfenamic],Bliss interaction score,-0.218
CC(=O)OC[C@H]1O[C@@H]([S-])[C@H](OC(C)=O)[C@@H](OC(C)=O)[C@@H]1OC(C)=O.CCP(CC)CC.[Au+] [Auranofin] + CC(=O)Oc1cccc2c1C(=O)c1c(OC(C)=O)cc(C(=O)O)cc1C2=O [Diacerein],Bliss interaction score,-0.466
